# Measured values taken from patent US20220290237A1, “METHOD FOR PREDICTING THE RESPONSE OF ANTIPSYCHOTIC DRUGS” (INSERM (INSTITUT NATIONAL DE LA SANTÉ ET DE LA RECHERCHE …, priority 2019, published 2022).
# Tested on: total RNA from blood samples
# Experiment: qRT-PCR replication of expression changes after amisulpride treatment in 24 independent subjects
# Type: in vivo, human
# Conditions: 4 weeks amisulpride
# Protocol: Total RNA was extracted from blood samples, collected in PAXgene Blood RNA tubes, with the PAXgene Blood miRNA Kit (QIAGEN GmbH, Hilden, Germany) using a standard protocol on QlAcube robot (QIAGEN). A DNase digestion procedure was added after extraction. Total RNA was purified using the RNA Clean & Concentrator™-5 kit following the manufacturer's instructions (Zymo Research Corp., Irvine, USA). RNA quantification was performed on a NanoDrop™ 8000 spectrophotometer, in duplicate. The quality and integrity of the RNA samples were assessed using an Agilent Bioanalyzer 2100 and the RNA6000 Nano Labchip kit (Agilent Technologies). Only samples with an RNA integrity number (RIN) higher than 7 were selected. Three hundred and seventy-six RNA samples fulfilled quality control criteria for RNA-seq analyses, corresponding to two RNA samples (one at inclusion and one after 4 weeks of treatment) for 188 subjects. Forty-eight additional RNAs were available for replication studies, in 24 independent subjects.
# Five-hundred nanograms of total RNA was reverse-transcribed using the High-Capacity cDNA Reverse Transcription kit following standard protocol (Thermo Fisher Scientific, Waltham, Mass., U.S.A.). Mixtures of the cDNAs and the TaqMan Universal PCR Master Mix were further loaded in the 384-well low density TaqMan array microfluidic cards (Thermo Fisher Scientific). Real-time PCR reactions were then carried out in an ABI Prism 7900HT sequence detection system (Thermo Fisher Scientific) using manufacturer's instructions. Each assay was carried out in duplicate and threshold cycle (Ct) values were automatically calculated by the SDS 2.2 software (Thermo Fisher Scientific), after having manually set the analysis threshold. Two reference genes (18S, and GUSB) with various expression levels were included in the analyses to perform a relative RNA quantification, using the most suitable reference gene.
# For the qRT-PCR analysis, ΔCt values of each gene of interest were calculated before and after treatment and then normalized by subtracting the ΔCt values of the reference gene to generate ΔΔCt values. To select genes with significant expression changes after treatment, the medians of fold changes (2-ΔΔCt) were subsequently compared to a reference (Me=1) using Wilcoxon Rank Sum Test, and an adjusted p-values below 0.1 was considered to be significant.
# To validate these DEGs, we used qRT-PCR in 24 independent subjects from the OPTiMiSE cohort, who were not included in the RNA-seq analyses and with a more than 20% improvement in total PANSS score after treatment (FIG. 1). We selected only brain-expressed protein-coding genes that were differentially expressed after treatment in good responders only. In addition, we restricted our selection to genes for which the expression change was correlated with symptom improvement (Table 1). […] In addition, two genes (P4HA2 and TRPC6) were removed from replication studies, because they were not detectable by qRT-PCR. Eleven genes were thus tested in the replication sample.
smiles,measurement,setting,value
"CCN1CCCC1CNC(=O)c1cc(S(=O)(=O)CC)c(N)cc1OC (centres unmarked) [amisulpride, 4-amino-N-((1-ethyl-2-pyrrolidinyl)methyl)-5-(etgylsulfonyl)-2-methoxybenzamide]","FC, fold-change at week 4 relative to the expression level at inclusion: ACSL5","ACSL5, replication sample (n = 24)",1.06
same,"FC, fold-change at week 4 relative to the expression level at inclusion: ALPL","ALPL, replication sample (n = 24)",0.77
same,"FC, fold-change at week 4 relative to the expression level at inclusion: CA4","CA4, replication sample (n = 24)",0.71
same,"FC, fold-change at week 4 relative to the expression level at inclusion: DGAT2","DGAT2, replication sample (n = 24)",0.73
same,"FC, fold-change at week 4 relative to the expression level at inclusion: DHRS13","DHRS13, replication sample (n = 24)",0.82
same,"FC, fold-change at week 4 relative to the expression level at inclusion: GALNT14","GALNT14, replication sample (n = 24)",0.76
same,"FC, fold-change at week 4 relative to the expression level at inclusion: HOMER3","HOMER3, replication sample (n = 24)",0.84
same,"FC, fold-change at week 4 relative to the expression level at inclusion: KAZN","KAZN, replication sample (n = 24)",0.67
same,"FC, fold-change at week 4 relative to the expression level at inclusion: KIAA0319","KIAA0319, replication sample (n = 24)",0.77
same,"FC, fold-change at week 4 relative to the expression level at inclusion: SLC4A4","SLC4A4, replication sample (n = 24)",0.84
same,"FC, fold-change at week 4 relative to the expression level at inclusion: WLS","WLS, replication sample (n = 24)",0.85
